Experimental data as given in ChEMBL document CHEMBL1201862, “PubChem BioAssay data set” (2004).
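A five-concentration, 48-hour dose response in 96-well plates underlies each endpoint, interpolated linearly between surrounding concentrations. GI50 is the concentration that inhibits growth by half.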 Activity calls are given as the source filed them. Cut-off read from the data, not from the text of the source: active = GI50 up to about 1.1 µM and inactive = higher.

Legend:
Assay in all cases: DTP human tumour cell line panel, 48 h
HCC 2998 = tested on: HCC 2998
RXF 393 = tested on: RXF 393
HOP-92 = tested on: HOP-92
LXFL 529 = tested on: LXFL 529
DMS-114 = tested on: DMS-114
786-0 = tested on: 786-0
SK-MEL-5 = tested on: SK-MEL-5
HOP-62 = tested on: HOP-62
SK-MEL-28 = tested on: SK-MEL-28
A498 = tested on: A498
SR = tested on: SR
NCI-H226 = tested on: NCI-H226
RPMI-8226 = tested on: RPMI-8226
HCT-116 = tested on: HCT-116
OVCAR-5 = tested on: OVCAR-5
SK-MEL-2 = tested on: SK-MEL-2

Measured: GI50

CCOC(=O)C1N(S(=O)(=O)c2ccc(C)cc2)CCC12c1ccccc1NC2c1ccc(OC)c(OC)c1 (stereo not drawn)
inactive: HCC 2998 > 100 µM | RXF 393 > 100 µM | HOP-92 10.7 µM | LXFL 529 > 100 µM | DMS-114 > 100 µM | 786-0 > 100 µM | SK-MEL-5 > 100 µM | HOP-62 > 100 µM | SK-MEL-28 > 100 µM | A498 > 100 µM | SR 22 µM | NCI-H226 > 100 µM | RPMI-8226 13.9 µM | HCT-116 60.7 µM | OVCAR-5 > 100 µM

Cc1nc2cc(N)c(F)cc2[nH]1
inactive: RXF 393 > 100 µM | HOP-92 > 100 µM | LXFL 529 > 100 µM | DMS-114 > 100 µM | 786-0 > 100 µM | SK-MEL-5 > 100 µM | HOP-62 > 100 µM | SK-MEL-28 > 100 µM | A498 > 100 µM | SR > 100 µM | NCI-H226 > 100 µM | SK-MEL-2 > 100 µM | OVCAR-5 > 100 µM

O=C1C=C(O)C(=Cc2c(O)cc(O)cc2O)C(O)=C1
inactive: HCC 2998 > 100 µM | RXF 393 > 100 µM | HOP-92 > 100 µM | LXFL 529 > 100 µM | DMS-114 > 100 µM | 786-0 > 100 µM | SK-MEL-5 > 100 µM | HOP-62 > 100 µM | A498 > 100 µM | SR > 100 µM | NCI-H226 > 100 µM | SK-MEL-2 > 100 µM | RPMI-8226 > 100 µM | HCT-116 > 100 µM | OVCAR-5 > 100 µM

CC(C)=CC(=O)CC(=O)C(=O)NCCNC(=O)C(=O)CC(=O)C=C(C)C
inactive: HCC 2998 > 50 µM | RXF 393 > 50 µM | HOP-92 > 50 µM | LXFL 529 > 50 µM | DMS-114 > 50 µM | 786-0 > 50 µM | HOP-62 > 50 µM | SK-MEL-28 > 50 µM | A498 > 50 µM | NCI-H226 > 50 µM | SK-MEL-2 > 50 µM | RPMI-8226 > 50 µM | HCT-116 > 50 µM | OVCAR-5 > 50 µM

O=C1C/C(Br)=C\c2ccccc2-c2ccccc21
inactive: HCC 2998 7.14 µM | RXF 393 1.43 µM | HOP-92 1.85 µM | LXFL 529 1.73 µM | DMS-114 2.79 µM | 786-0 1.4 µM | SK-MEL-5 5.4 µM | HOP-62 3.05 µM | A498 8.51 µM | NCI-H226 2.66 µM | SK-MEL-2 2.7 µM | RPMI-8226 1.52 µM | HCT-116 1.8 µM | OVCAR-5 2.69 µM
active: SK-MEL-28 1.05 µM | SR 0.405 µM

O=C(CCC(=O)Nc1ccc(Cl)cc1)CC(=O)c1ccc2ccccc2c1
inactive: HCC 2998 > 100 µM | RXF 393 > 100 µM | HOP-92 > 100 µM | LXFL 529 > 100 µM | DMS-114 > 100 µM | 786-0 > 100 µM | SK-MEL-5 > 100 µM | HOP-62 > 100 µM | SK-MEL-28 > 100 µM | A498 > 100 µM | SR > 100 µM | NCI-H226 > 100 µM | SK-MEL-2 > 100 µM | RPMI-8226 > 100 µM | HCT-116 > 100 µM | OVCAR-5 > 100 µM

CCOC(=O)C(OCC1CC=CCC1)Sc1ccccc1 (stereo not drawn)
inactive: HCC 2998 > 100 µM | HOP-92 > 100 µM | LXFL 529 > 100 µM | DMS-114 > 100 µM | 786-0 > 100 µM | SK-MEL-5 > 100 µM | HOP-62 > 100 µM | SK-MEL-28 > 100 µM | A498 > 100 µM | SR 1.77 µM | SK-MEL-2 > 100 µM | RPMI-8226 > 100 µM | HCT-116 > 100 µM | OVCAR-5 > 100 µM

C#Cc1ccccc1N1C(=O)C=CC1=O
inactive: LXFL 529 > 100 µM | DMS-114 > 100 µM | 786-0 > 100 µM | SK-MEL-5 > 100 µM | HOP-62 > 100 µM | SK-MEL-28 > 100 µM | A498 > 100 µM | SR > 100 µM | NCI-H226 > 100 µM | SK-MEL-2 > 100 µM | RPMI-8226 > 100 µM | HCT-116 > 100 µM | OVCAR-5 > 100 µM

CC#COP(=O)(OCC)OCC
inactive: HCC 2998 > 100 µM | LXFL 529 > 100 µM | DMS-114 > 100 µM | 786-0 > 100 µM | SK-MEL-5 > 100 µM | HOP-62 > 100 µM | A498 39.5 µM | SR 64.6 µM | NCI-H226 23.9 µM | SK-MEL-2 > 100 µM | RPMI-8226 85.1 µM | HCT-116 > 100 µM | OVCAR-5 > 100 µM

COC(=O)c1nn(-c2ccccc2)c(=O)cc1N=[N+]=[N-]
inactive: HCC 2998 > 100 µM | RXF 393 > 100 µM | LXFL 529 > 100 µM | DMS-114 > 100 µM | 786-0 > 100 µM | SK-MEL-5 > 100 µM | HOP-62 > 100 µM | SK-MEL-28 > 100 µM | A498 94 µM | SR > 100 µM | NCI-H226 > 100 µM | RPMI-8226 > 100 µM | HCT-116 > 100 µM | OVCAR-5 > 100 µM

Cc1ccc(C2=NO[C@@H]3C(=O)N(c4ccc(Cc5ccc(N6C(=O)[C@H]7C(c8ccc(C)cc8)=NO[C@H]7C6=O)cc5)cc4)C(=O)[C@H]23)cc1
inactive: HCC 2998 > 100 µM | RXF 393 > 100 µM | HOP-92 > 100 µM | LXFL 529 > 100 µM | DMS-114 > 100 µM | 786-0 > 100 µM | SK-MEL-5 > 100 µM | HOP-62 > 100 µM | SK-MEL-28 > 100 µM | A498 > 100 µM | NCI-H226 > 100 µM | SK-MEL-2 > 100 µM | RPMI-8226 > 100 µM | OVCAR-5 > 100 µM

O=C1NC2=C(CCCCC/C2=N\O)C12CCCCCC2
inactive: RXF 393 > 100 µM | HOP-92 > 100 µM | LXFL 529 > 100 µM | DMS-114 > 100 µM | 786-0 > 100 µM | SK-MEL-5 > 100 µM | HOP-62 > 100 µM | SK-MEL-28 > 100 µM | A498 > 100 µM | SR > 100 µM | SK-MEL-2 > 100 µM | RPMI-8226 > 100 µM | HCT-116 > 100 µM | OVCAR-5 > 100 µM

C/C(=C1/CCCC2(N=NCC2c2ccccc2)C1=O)c1ccccc1 (stereo not drawn)
inactive: HCC 2998 38.2 µM | RXF 393 25.4 µM | HOP-92 24.2 µM | LXFL 529 17.3 µM | DMS-114 9.16 µM | 786-0 46.7 µM | SK-MEL-5 12.7 µM | SK-MEL-28 26.9 µM | SR 14 µM | NCI-H226 16 µM | SK-MEL-2 19.1 µM | RPMI-8226 20 µM | HCT-116 18.7 µM | OVCAR-5 36 µM

C1OC1CN1CCN(CC2CO2)CC1 (stereo not drawn)
inactive: HCC 2998 > 100 µM | RXF 393 > 100 µM | HOP-92 80.9 µM | LXFL 529 > 100 µM | DMS-114 12.8 µM | 786-0 35.3 µM | SK-MEL-5 > 100 µM | HOP-62 24.2 µM | SK-MEL-28 > 100 µM | A498 > 100 µM | SR 2.42 µM | NCI-H226 > 100 µM | SK-MEL-2 > 100 µM | RPMI-8226 > 66.8 µM | HCT-116 72.8 µM | OVCAR-5 > 100 µM

C#CCNC(=O)NCCCC(NC(C)=O)C(=O)NCc1ccccc1 (stereo not drawn)
inactive: HCC 2998 > 100 µM | RXF 393 > 100 µM | HOP-92 > 100 µM | LXFL 529 > 100 µM | DMS-114 > 100 µM | 786-0 > 100 µM | SK-MEL-5 > 100 µM | HOP-62 > 100 µM | SK-MEL-28 > 100 µM | A498 > 100 µM | SR > 100 µM | NCI-H226 > 100 µM | RPMI-8226 > 100 µM | HCT-116 > 100 µM | OVCAR-5 > 100 µM

O=C1C=C2CCCC2C(C(=O)O)(C(=O)O)C1 (stereo not drawn)
inactive: HCC 2998 > 100 µM | RXF 393 > 100 µM | HOP-92 > 100 µM | LXFL 529 > 100 µM | DMS-114 > 100 µM | 786-0 > 100 µM | SK-MEL-5 > 100 µM | HOP-62 > 100 µM | SK-MEL-28 > 100 µM | A498 > 100 µM | SK-MEL-2 > 100 µM | RPMI-8226 > 100 µM | HCT-116 > 100 µM

CCCC(=O)Nc1ccc(O)c2c1C1CCCCCC21 (stereo not drawn)
inactive: RXF 393 39.1 µM | LXFL 529 > 100 µM | DMS-114 50.2 µM | 786-0 > 100 µM | SK-MEL-5 72.4 µM | HOP-62 > 100 µM | SK-MEL-28 > 100 µM | SR 82.2 µM | NCI-H226 > 100 µM | SK-MEL-2 > 100 µM | RPMI-8226 63.1 µM | HCT-116 85.3 µM

CN1CCN(c2nc(N)c(Br)c(Cl)n2)CC1
inactive: HCC 2998 > 100 µM | RXF 393 > 100 µM | HOP-92 54.3 µM | LXFL 529 > 100 µM | DMS-114 > 100 µM | 786-0 > 100 µM | SK-MEL-5 > 100 µM | HOP-62 > 100 µM | SK-MEL-28 > 100 µM | SK-MEL-2 > 100 µM | RPMI-8226 > 100 µM | OVCAR-5 > 100 µM
